From the supplement of paper PMC10331698
± gives the standard deviation of the averaged measurements.

What was measured:
Assay in all cases: level (log10 ratio to DMSO vehicle control); higher = higher biomarker level / cell amount than vehicle control
Conditions in all cases: in DMSO
[1] = compound: O=S(=O)(F)C(F)(F)C(F)(F)C(F)(F)C(F)(F)C(F)(F)C(F)(F)C(F)(F)C(F)(F)F [Perfluorooctanesulfonyl fluoride]
Procedure: (§1)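 BioMAP Diversity Plus panel of 12 human primary cell co-culture systems (3C, 4H, LPS, SAg, BT, BF4T, BE3C, CASM3C, HDF3CGF, KF3CT, MyoF, Mphg). Compounds were added 1 h before stimulation and left for 24 h (MyoF 48 h; BT 72 h for soluble read-outs or 6 d for IgG). Biomarkers were read by ELISA, cytotoxicity by SRB, PBMC viability and proliferation by Alamar Blue. Each well value was divided by the mean of 8 DMSO control wells on the same plate and log10 transformed; duplicate blinded samples were tested at 4 concentrations.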

[2] = compound: FC(F)(F)C(F)(F)CNCC(F)(F)C(F)(F)F [Bis(1H,1H-perfluoropropyl)amine]
Procedure: as §1

[3] = compound: O=S(=O)(Cl)C(F)(F)C(F)(F)C(F)(F)C(F)(F)C(F)(F)C(F)(F)C(F)(F)C(F)(F)F [Perfluoro-1-octanesulfonyl chloride]
Procedure: as §1

Hexafluoroamylene glycol = compound: OCC(F)(F)C(F)(F)C(F)(F)CO [Hexafluoroamylene glycol]
Procedure: as §1

[4] = compound: O=C(O)C=CC(F)(C(F)(F)F)C(F)(F)F [3-(Perfluoroisopropyl)-2-propenoic acid]
Procedure: as §1

[5] = compound: O=S(=O)(O)C(F)(F)C(F)(F)C(F)(F)C(F)(F)C(F)(F)C(F)(F)C(F)(F)C(F)(F)C(F)(F)C(F)(F)F [Sodium perfluorodecanesulfonate]
Procedure: as §1

Test System	level (log10) ([1]; 6700 nM)	level (log10) ([1]; 20000 nM)	level (log10) ([1]; 60000 nM)	level (log10) ([2]; 6700 nM)	level (log10) ([2]; 20000 nM)	level (log10) ([2]; 60000 nM)	level (log10) ([3]; 6700 nM)	level (log10) ([3]; 20000 nM)	level (log10) ([3]; 60000 nM)	level (log10) (Hexafluoroamylene glycol; 6700 nM)	level (log10) (Hexafluoroamylene glycol; 20000 nM)	level (log10) (Hexafluoroamylene glycol; 60000 nM)	level (log10) ([4]; 6700 nM)	level (log10) ([4]; 20000 nM)	level (log10) ([4]; 60000 nM)	level (log10) ([5]; 1500 nM)	level (log10) ([5]; 4400 nM)	level (log10) ([5]; 13000 nM)	level (log10) ([5]; 40000 nM)
3C:CCL2/MCP-1	-0.014 ± 0.0014	-0.0215 ± 0.011	0.001 ± 0.021	0.004 ± 0.031	-0.0225 ± 0.012	0.006 ± 0.016	-0.009 ± 0.0085	-0.0025 ± 0.0092	0.017 ± 0.0014	-0.024 ± 0.013	-0.013 ± 0.0042	-0.003	0.0025 ± 0.022	-0.009 ± 0.0014	0.019 ± 0.02	0.0315 ± 0.005	-0.0195 ± 0.026	0.005 ± 0.033	0.0655 ± 0.032
3C:CD62E/E-Selectin	-0.006 ± 0.0057	-0.01	-0.006 ± 0.024	-0.0115 ± 0.0092	-0.0105 ± 0.022	0.008 ± 0.024	-0.017 ± 0.0071	0.0135 ± 0.021	0.11 ± 0.021	-0.0185 ± 0.037	-0.021 ± 0.025	-0.012 ± 0.0014	-0.009 ± 0.013	-0.031 ± 0.0085	-0.0155 ± 0.013	0.0005 ± 0.0035	0.002 ± 0.0071	0.0185 ± 0.028	0.057 ± 0.05
3C:CD87/uPAR	-0.0125 ± 0.012	-0.0085 ± 0.012	-0.006 ± 0.0014	0.021 ± 0.0028	0.0045 ± 0.015	-0.0075 ± 0.0064	0.011 ± 0.024	-0.0065 ± 0.016	-0.199 ± 0.033	-0.0295 ± 0.047	-0.0235 ± 0.039	-0.0075 ± 0.029	0.025 ± 0.0071	0.033 ± 0.038	0.0465 ± 0.042	-0.0055 ± 0.047	-0.0275 ± 0.013	-0.009 ± 0.037	-0.222 ± 0.0085
3C:CD106/VCAM-1	-0.009 ± 0.0099	-0.003 ± 0.013	-0.01 ± 0.023	-0.016 ± 0.027	-0.027 ± 0.037	-0.0025 ± 0.03	0.008 ± 0.013	0.028 ± 0.0099	0.0325 ± 0.013	-0.0205 ± 0.013	-0.031 ± 0.011	-0.0065 ± 0.0092	-0.002 ± 0.03	-0.039 ± 0.037	-0.0205 ± 0.00071	-0.0035 ± 0.0035	0.0055 ± 0.011	-0.016 ± 0.013	0.0065 ± 0.0078
3C:CD141/Thrombomodulin	-0.021 ± 0.0099	-0.0235 ± 0.026	-0.0245 ± 0.028	0.0205 ± 0.043	0.0255 ± 0.04	0.046 ± 0.058	0.012 ± 0.025	0.0215 ± 0.016	0.186 ± 0.0021	0.0175 ± 0.052	-0.01 ± 0.033	-0.011 ± 0.088	-0.0125 ± 0.023	-0.006 ± 0.0057	0.0045 ± 0.016	-0.015 ± 0.031	-0.052 ± 0.013	-0.0325 ± 0.019	-0.0565 ± 0.0035
3C:CD142/Tissue Factor	-0.0085 ± 0.005	-0.0175 ± 0.0021	-0.0105 ± 0.0021	0.038 ± 0.05	-0.0105 ± 0.094	0.0165 ± 0.11	-0.035 ± 0.027	0.015 ± 0.013	0.0705 ± 0.063	0.014 ± 0.1	0.013 ± 0.062	0.009 ± 0.1	-0.018 ± 0.065	-0.036 ± 0.048	0.003 ± 0.061	-0.0005 ± 0.04	-0.0075 ± 0.015	0.0205 ± 0.025	-0.0695 ± 0.0078
3C:CXCL8/IL-8	-0.006 ± 0.0085	0.002	0.0145 ± 0.019	-0.0005 ± 0.0092	0.0005 ± 0.052	0.0445 ± 0.093	0.013 ± 0.014	0.043 ± 0.013	0.16 ± 0.0099	-0.0275 ± 0.069	-0.022 ± 0.042	0.012 ± 0.028	-0.001 ± 0.038	-0.0275 ± 0.0092	0.028 ± 0.033	0.035 ± 0.035	0.021 ± 0.013	0.03 ± 0.017	0.0725 ± 0.013
